Series [1] can be described thus: Metabolic stability in mouse plasma assessed as compound remaining at 1 uM and measured at 3 hrs by LC-MS/MS analysis. Type of series: ADME, cell-free. Conditions: read-out: Stability.
A further series deals with Cell membrane. As to the kind of experiment: Induction of mitochondrial membrane depolarization in human K562 cells assessed as decrease in red fluorescence intensity at incubated for 48 hrs by JC-1 staining based flow cytometry. Type of series: cell membranes. Conditions: dose 1.5-6 nM. On the technique in general: Flow cytometry measures light scatter and fluorescence of single cells or particles in a stream.

The test system of series [2] is K562. Description: Induction of cell cycle arrest in human K562 cells assessed as accumulation of cells at G1 phase at 6 nM incubated overnight by PI staining based flow cytometry analysis (reference value: 78.45%). Type of series: functional.
For series [3], the system named is K562. As to the kind of experiment: Induction of cell cycle arrest in human K562 cells assessed as accumulation of cells at G2/M phase at 3 nM incubated overnight by PI staining based flow cytometry analysis (reference value: 5.57%). Type of series: functional.
Series [4] can be described thus: Metabolic stability in mouse plasma assessed as half life at 1 uM and measured upto 3 hrs by LC-MS/MS analysis. The class given is ADME, cell-free.
The subject of series [5] is K562. Description: Induction of ROS generation in human K562 cells incubated for 24 hrs by DCFH-DA staining based assay. Type of series: functional, cell-based. Conditions: dose 1.5-6 nM.
Series [6] is described as follows: Toxicity in mouse assessed as effect on kidney at 20 mg/kg by H and E staining based microscopic analysis. The class given is organism-based. Conditions: in vivo.
Series [7] relates to K562. Description: Induction of cell cycle arrest in human K562 cells assessed as accumulation of cells at S phase at 3 nM incubated overnight by PI staining based flow cytometry analysis (reference value: 15.98%). The class given is functional.
Series [8] relates to H22. Description: Antitumor activity against mouse H22 cells allografted in mouse model assessed as inhibition of tumor volume administered as iv dose for once daily for 3 weeks. Type of series: functional, organism-based. Conditions: dose 10-20 mg/kg.
Series [9] has as its system K562. As to the kind of experiment: Induction of apoptosis in human K562 cells at 6 nM measured after 48 hrs by Annexin V-FITC/7-AAD staining based flow cytometric analysis relative to control. The class given is functional.
A short description of series [10]: Resistance index, ratio of IC50 for antiproliferative activity against human A549/Taxol cells to IC50 for antiproliferative activity against human A549 cells. Type of series: functional.
The next series deals with A549. As to the kind of experiment: Antiproliferative activity against human A549 cells assessed as inhibition of cell growth at 1 uM measured after 72 hrs by MTT assay relative to control. The class given is functional. Background: Tetrazolium dyes change colour on reduction, which living cells bring about.
In series [11] the test system is K562. Description: Induction of cell cycle arrest in human K562 cells assessed as accumulation of cells at G1 phase at 1.5 nM incubated overnight by PI staining based flow cytometry analysis (reference value: 78.45%). Type of series: functional.
In series [12] the test system is H22. As to the kind of experiment: Antitumor activity against mouse H22 cells allografted in mouse model assessed as inhibition of tumor weight administered as iv dose for once daily for 3 weeks. Type of series: functional, organism-based. Conditions: dose 10-20 mg/kg.
Series [13] relates to K562. Description: Induction of apoptosis in human K562 cells assessed as increase in bad level at upto 6 nM measured after 48 hrs by Western blot analysis. The class given is functional, cell-based.
Another series has as its system HepG2. Description: Antiproliferative activity against human HepG2 cells assessed as inhibition of cell growth measured after 72 hrs by MTT assay. Conditions: HepG2, 72 h. Type of series: functional, cell-based.
A further series concerns MDA-MB-231. As to the kind of experiment: Inhibition of cell migration in human MDA-MB-231 cells measured after 48 hrs by crystal violet staining microscopy based transwell migration assay. Type of series: functional. Conditions: dose 1.5-6 nM.

The structures appear in SMILES notation. Active and inactive are the calls of the source.

One may read the half-life as the time needed for the level to fall by half in the phase considered. For orientation: inhibition means the drop in the measured response relative to a control, in per cent. By IC50 is commonly meant the concentration needed to halve the response being measured.

As for `CCn1ccc2cc(N3CCC(=O)c4c3cc(OC)c(OC)c4OC)ccc21`, the remaining at 3 h, 1 µM in series [1] worked out at 105%. The Activity entry is “Dose-Dependent Effect” in the series with Cell membrane; 47.52% in the series with K562 [2]; 12.33% with K562 [3]; “Dose-Dependent Effect” with K562 [5]; “Non-Toxic” in [6]; 28.04% in the series with K562 [7]. The Activity entry is “Dose-Dependent Effect” in the series on H22 [8], 45.82% with K562 [9], 66.8% in the series on K562 [11] and “Dose-Dependent Effect” with H22 [12]. Further, the half-life at 1 µM in series [4] is > 3 h. The “Ratio IC50” value in [10] was determined as 5.38. Further, the inhibition at 1 µM in the series on A549 worked out at 79%. Moreover, the result in the series on K562 [13] was Active. Also, in the series with HepG2, the IC50 amounted to 9 nM. Further, in the series on MDA-MB-231, the inhibition entry is “Dose-Dependent Effect”.

For the origin of these results see ChEMBL document CHEMBL5634150, “Design, synthesis and biological evaluation of novel dihydroquinolin-4(1H)-one derivatives as novel tubulin polymerization inhibitors” (Eur J Med Chem, 2023).
